Measurements published in patent US20250163057A1, “DCN-1 MODULATING COMPOUNDS AND METHODS OF USE THEREOF” (Cellarity, Inc., priority 2023, published 2025).
Read-outs that look alike come from different tables or passages of the source.

How the values were obtained:
[1] = target: DCN1 (DCUND1) protein PONY domain (Homo sapiens (Human), UniProt Q96GG9); experiment: TR-FRET assay, DCN1 binding with FAM-labeled probe
Method in brief: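 First, the E. coli-derived PONY domain was biotinylated and paired with streptavidin Tb cryptate. Compounds in 0.1% DMSO were then added to DCN1 and FAM-probe (5 nM/20 nM, or 0.31 nM/900 nM total with 800 nM unlabelled) in TritonX, 200 mM NaCl buffer. Finally, TR-FRET ratios were recorded at 1, 5 and 24 hrs.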

[2] = tested on: Cullin-3 (CUL3) neddylation; experiment: AlphaLISA assay for Cullin-3 (CUL3) neddylation in TF 1 cells; assay type: cell-based; settings: Homo sapiens, 3 hours treatment
Method in brief: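 TF 1 cells in unsupplemented IMDM treated with compound concentrations for 3 h, then lysed. CUL3 neddylation detected by AlphaLISA (biotinylated anti-NEDD8, anti-CUL3 acceptor beads overnight, streptavidin donor beads 1 h); normalized to vehicle (0%) and 1 μM DI-1548 (100%), IC50 from Hill fits.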

[3] = 24 hr after treatment with compound, read-out: TR FRET IC50 24 hr
[4] = TR FRET IC50 1 hr (nM), 1 hr after treatment with compound
[5] = read-out: TR FRET IC50 1 hr, 1 hr after treatment with compound

Chain of DCN1 (DCUND1) protein PONY domain (Q96GG9 60-248): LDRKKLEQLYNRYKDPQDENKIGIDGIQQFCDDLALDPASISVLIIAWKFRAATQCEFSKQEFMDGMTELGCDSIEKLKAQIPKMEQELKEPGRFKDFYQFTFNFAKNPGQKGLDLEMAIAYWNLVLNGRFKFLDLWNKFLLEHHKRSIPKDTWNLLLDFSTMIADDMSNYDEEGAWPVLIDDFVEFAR

SMILES | IC50 [1, 3] [nM] | IC50 [1, 4] [nM] | IC50 ([2]; TF-1, 3 h) [nM] | IC50 [1, 5] [nM] | IC50 [2] [nM]
CCN1C(=O)[C@@H](NC(=O)c2cccc(C(F)(F)F)c2)[C@@H](c2ccc(F)cc2)c2c([C@@H](C)NC(N)=O)nn(-c3ccccc3)c21 [Compound I-499, N-((4S,5S)-7-ethyl-4-(4-fluorophenyl)-6-oxo-1-phenyl-3-((R)-1-ureidoethyl)-4,5,6,7-tetrahydro-1H-pyrazolo[3,4-b]pyridin-5-yl)-3-(trifluoromethyl)benzamide] | 1000 to 3000 | 1000 to 3000 | 100 to 1000 | – | –
CCN1C(=O)[C@@H](NC(=O)c2nc(C(F)(F)F)cs2)[C@@H](c2ccc(F)cc2)c2c(C(=O)N3CCC[C@H]3C#N)nn(C3CCOCC3)c21 [Compound I-586] | 200 to 1000 | 1000 to 3000 | ≤ 100 | – | –
CCN1C(=O)[C@H](NC(=O)c2cccc(C(F)(F)F)c2)[C@H](c2ccc(C)cc2)c2c(C(=O)N(C)CC#N)nn(C3CC3)c21 [Compound I-494] | 1000 to 3000 | 1000 to 3000 | > 1000 | – | –
CCN1C(=O)[C@H](NC(=O)c2cccc(C(F)(F)F)c2)[C@H](c2ccc(F)cc2)c2c(C(=O)N(CC#N)CCC(=O)OC)nn(-c3ccccc3)c21 (stereo in doubt) [Compound I-461] | 1000 to 3000 | 1000 to 3000 | > 1000 | – | –
CCN1C(=O)[C@@H](NC(=O)c2cccc(C(F)(F)F)c2)[C@@H](c2ccc(F)cc2)c2c(C(=O)N3[C@H](C#N)C[C@H]4C[C@H]43)nn([C@H]3CCOC3)c21 (relative stereo) [Compound I-630, N-((4S*,5S*)-3-((1R,3S,5R)-3-cyano-2-azabicyclo[3.1.0]hexane-2-carbonyl)-7-ethyl-4-(4-fluorophenyl)-6-oxo-1-((S**)-tetrahydrofuran-3-yl)-4,5,6,7-tetrahydro-1H-pyrazolo[3,4-b]pyridin-5-yl)-3-(trifluoromethyl)benzamide] | ≤ 200 | ≤ 200 | ≤ 100 | – | –
CCN1C(=O)[C@@H](NC(=O)c2cccc(C(F)(F)F)c2)[C@@H](C2CC2)c2c(C(=O)N(C)C(C)C#N)nn(-c3ccccc3)c21 (mixture of isomers) [Compound I-543] | ≤ 200 | – | 100 to 1000 | ≤ 200 | –
CCCn1nc(C(=O)N(CC#N)C2CC2)c2c1N(CC)C(=O)[C@@H](NC(=O)c1cccc(C(F)(F)F)c1)[C@H]2C1CC1 [Compound I-427] | 200 to 1000 | 1000 to 3000 | 100 to 1000 | – | –
CCN1C(=O)[C@@H](NC(=O)c2cccc(C(F)(F)F)c2)[C@@H](c2ccccn2)c2c(C(=O)N3CCC[C@H]3C#N)nn(-c3ccccc3)c21 (mixture of isomers) [Compound I-413] | ≤ 200 | 1000 to 3000 | ≤ 100 | – | –
CCN1C(=O)[C@@H](NC(=O)c2cccc(C(F)(F)F)c2)[C@@H](c2ccc(F)cc2)c2c(CN(C#N)CCO)nn(-c3ccccc3)c21 (racemic) [Compound I-244, ˜{N}—[˜{rac}-(4˜{S},5˜{S})-3-[[cyano(2-hydroxyethyl)amino]methyl]-7-ethyl-4-(4-fluorophenyl)-6-oxo-1-phenyl-4,5-dihydropyrazolo[3,4-b]pyridine-5-yl]-3-(trifluoromethyl)benzamide] | 200 to 1000 | 1000 to 3000 | 100 to 1000 | – | –
CCN1C(=O)[C@@H](NC(=O)c2cccc(C(F)(F)F)c2)[C@@H](c2ccc(F)cc2)c2c(CN(C#N)CCCN3CCC4(CC3)COC4)nn(-c3ccccc3)c21 [Compound I-579] | ≤ 200 | – | ≤ 100 | ≤ 200 | –
CCN1C(=O)[C@@H](NC(=O)c2cccc3cccnc23)[C@@H](C2CC2)c2c(C(=O)N3[C@H](C#N)C[C@H]4C[C@H]43)nn(C3CCOCC3)c21 [Compound I-527] | ≤ 200 | 200 to 1000 | 100 to 1000 | – | –
CCN1C(=O)[C@@H](NC(=O)c2cccc(C(F)(F)F)c2)[C@@H](c2ccc(F)cc2)c2c(CN(C#N)CCCN3CCOCC3)nn(-c3ccccc3)c21 [Compound I-496] | ≤ 200 | – | ≤ 100 | ≤ 200 | –
CCN1C(=O)[C@@H](NC(=O)c2cccc(C(F)(F)F)c2)[C@@H](c2ccc(F)cc2)c2c(C(=O)N(C)C3(C#N)CCC3)nn(-c3ccccc3)c21 (racemic) [Compound I-689] | ≤ 200 | 1000 to 3000 | 100 to 1000 | – | –
CCN1C(=O)[C@H](NC(=O)c2cccc(C(F)(F)F)c2)[C@H](c2ccc(F)cc2)c2c(C(=O)N3CCC[C@H]3C#N)nn(C3CCOCC3)c21 [Compound I-401] | 1000 to 3000 | 1000 to 3000 | > 1000 | – | –
CCN1C(=O)[C@@H](NC(=O)c2cccc(C(F)(F)F)c2)[C@@H](c2ccc(F)cc2)c2c(C(=O)N3CCC[C@H]3C#N)nn(-c3cccc(OCCCN4CC5(COC5)C4)c3)c21 (stereo in doubt) [Compound I-615] | 200 to 1000 | 1000 to 3000 | > 1000 | – | –
CCN1C(=O)[C@@H](NC(=O)c2cccc(C(F)(F)F)c2)[C@@H](C2CC2)c2c(C(=O)N3CC[C@@H](NC)[C@@H]3C#N)nn(C3CCOCC3)c21 (relative stereo) [Compound I-421, N-((4S,5S)-3-((2R*,3R*)-2-cyano-3-(methylamino)pyrrolidine-1-carbonyl)-4-cyclopropyl-7-ethyl-6-oxo-1-(tetrahydro-2H-pyran-4-yl)-4,5,6,7-tetrahydro-1H-pyrazolo[3,4-b]pyridin-5-yl)-3-(trifluoromethyl)benzamide] | ≤ 200 | 1000 to 3000 | 100 to 1000 | – | –
CCN1C(=O)[C@@H](NC(=O)c2cccc(C(F)(F)F)c2)[C@@H](c2ccc(F)cc2)c2c(CNC(=O)/C=C(\C)C(=O)OC)nn(-c3ccccc3)c21 (racemic) [Compound I-150, rac-methyl (E)-4-((((4R,5R)-7-ethyl-4-(4-fluorophenyl)-6-oxo-1-phenyl-5-(3-(trifluoromethyl)benzamido)-4,5,6,7-tetrahydro-1H-pyrazolo[3,4-b]pyridin-3-yl)methyl)amino)-2-methyl-4-oxobut-2-enoate] | 200 to 1000 | 1000 to 3000 | > 1000 | – | –
CCN1C(=O)[C@@H](NC(=O)c2cccc(C(F)(F)F)c2)[C@@H](c2ccc(F)cc2)c2c(C(=O)N3CCC=C3C#N)nn(C3CCOCC3)c21 [Compound I-631, N-((4S,5S)-3-(5-cyano-2,3-dihydro-1H-pyrrole-1-carbonyl)-7-ethyl-4-(4-fluorophenyl)-6-oxo-1-(tetrahydro-2H-pyran-4-yl)-4,5,6,7-tetrahydro-1H-pyrazolo[3,4-b]pyridin-5-yl)-3-(trifluoromethyl)benzamide] | ≤ 200 | 200 to 1000 | 100 to 1000 | – | –
CCN1C(=O)[C@H](NC(=O)c2cccc(C(F)(F)F)c2)[C@H](c2ccc(F)cc2)c2c([C@H](C)NC#N)nn(-c3ccccc3)c21 [Compound I-410] | 200 to 1000 | 1000 to 3000 | 100 to 1000 | – | –
CCN1C(=O)[C@@H](NC(=O)c2cccc(C(F)(F)F)c2)[C@@H](C2CCCC2)c2c(C(=O)N(CC#N)C3CC3)nn(C3CCOCC3)c21 [Compound I-478] | ≤ 200 | 1000 to 3000 | 100 to 1000 | – | –
C=C(CN1CCC1)C(=O)NCc1nn(-c2ccccc2)c2c1[C@H](C1CC1)[C@H](NC(=O)c1cccc(C(F)(F)F)c1)C(=O)N2CC (stereo in doubt) [Compound I-462] | ≤ 200 | – | ≤ 100 | ≤ 200 | –
CCCn1nc(C(=O)N2CCC[C@H]2C#N)c2c1N(CC)C(=O)[C@H](NC(=O)c1cccc(C(F)(F)F)c1)[C@@H]2c1ccc(F)cc1 [Compound I-479] | 1000 to 3000 | 1000 to 3000 | > 1000 | – | –
CCN1C(=O)[C@@H](NC(=O)c2cccc(C(F)(F)F)c2)[C@@H](c2ccc(F)cc2)c2c(CN(C)C/C=C/C(=O)N(C)C)nn(-c3ccccc3)c21 [Compound I-638] | ≤ 200 | – | > 1000 | ≤ 200 | –
CCN1C(=O)[C@@H](NC(=O)c2cccc(C(F)(F)F)c2)[C@@H](c2ccc(F)cc2)c2c(CN(C#N)CCCCN(C)C)nn(-c3ccccc3)c21 (single isomer, unassigned) [Compound I-249, ˜{N}-[(4˜{S},5˜{R})-3-[[cyano-[4-(dimethylamino)butyl]amino]methyl]-7-ethyl-4-(4-fluorophenyl)-6-oxo-1-phenyl-4,5-dihydropyrazolo[3,4-b]pyridine-5-yl]-3-(trifluoromethyl)benzamide] | 200 to 1000 | 200 to 1000 | 100 to 1000 | – | –
CCN1C(=O)[C@@H](NC(=O)c2cccc(C(F)(F)F)c2)[C@@H](C2CC2)c2c(C(=O)N3CCS(=O)(=O)C[C@@H]3C#N)nn(-c3ccccc3)c21 [Compound I-438, N-((4S,5S)-3-((S)-3-cyano-1,1-dioxidothiomorpholine-4-carbonyl)-4-cyclopropyl-7-ethyl-6-oxo-1-phenyl-4,5,6,7-tetrahydro-1H-pyrazolo[3,4-b]pyridin-5-yl)-3-(trifluoromethyl)benzamide] | ≤ 200 | – | ≤ 100 | ≤ 200 | –
CCN1C(=O)[C@@H](NC(=O)c2cccc(C(F)(F)F)c2)[C@@H](C2CC2)c2c(C(=O)N(C)[C@@H](C#N)CCN(C)C)nn(C3CCOCC3)c21 [Compound I-550] | ≤ 200 | – | ≤ 100 | ≤ 200 | –
CCN1C(=O)[C@@H](NC(=O)c2ccc3ccoc3c2)[C@@H](C2CC2)c2c(C(=O)N3[C@H](C#N)C[C@H]4C[C@H]43)nn(C3CCOCC3)c21 [Compound I-526] | ≤ 200 | – | – | ≤ 200 | ≤ 100
